# Where two headings read alike, the source gives them in different places.
# How the values were obtained:
# Type in all cases: cell-based
# [1] = test system: E. cloacae M-20; test: MIC by agar dilution (CLSI) against highly resistant ESBL strain; details: E. cloacae M-20
# Protocol: (§1) The results on activity of cefepime and other cephalosporin antibacterial agents in combination with tazobactam against highly resistant ESBL strains are given Table 1. In a typical study, overnight grown bacterial cultures were diluted appropriately and inoculated on the agar media containing doubling dilutions of the antibiotic. Observation for growth or no growth was performed after 16-20 h of incubation at 35±2° C. in ambient air. The overall procedure was performed as per Clinical and Laboratory Standards Institute (CLSI) recommendations. This experimental was followed for Examples 2-4 and 6 below (Table 2-4 and 7).
# [2] = test system: E. coli 7MP; test: as above; details: E. coli 7MP
# Protocol: as §1
# [3] = test system: E. coli B-89; test: as above; details: E. coli B-89
# Protocol: as §1
# [4] = test system: E. coli B123; test: as above; details: for Activity (MIC, method of Example 1), Table 7: E. coli B-123; for MIC: Escherichia coli, B123, E. coli B123, read-out: MIC
# Protocol: as §1
# [5] = test system: E. coli M50; test: as above
# Protocol: as §1
# [6] = test system: K. pneumoniae M150; test: as above
# Protocol: as §1
# [7] = test system: E. coli 7MP; test: Quantitative drug diffusion assay (disc, zone of inhibition, CLSI); design: key to Interpretation of zone as per CLSI recommendations: R: Resistant; I: Intermediate; S: Sensitive (Interpretation as per CLSI recommendations, 2010)
# Description: (§2) Activity of cefepime in combination with tazobactam and various penicillins in combination with respective ESBL inhibitors was also investigated against highly resistant ESBL strains in quantitative drug diffusion assay performed as per CLSI recommendations (Clinical and Laboratory Standards Institute (CLSI), performance Standards for Antimicrobial Susceptibility Testing, 20th Informational Supplement, M 100-S20, Volume 30, No. 1, 2010).
# (§3) In a typical study, overnight grown bacterial cultures after appropriate dilution were seed inoculated in the molten, cooled agar media and plates poured. Antibiotics containing 6 mm diameter discs were place on the top of the agar surface. Zone of inhibition based observation was performed after 16-18 h of incubation at 35±2° C. in ambient air. The overall procedure was performed as per CLSI recommendations (Table 5 and 6). These assays are routinely used in determining possibility of treating a particular infection using antibiotic and/or their combinations. For example, in case of treating an infection caused by E. coli (M138) using Augmentin® [commercially available combination: Amoxicillin (500 mg)+Clavulanic acid (125 mg)], the zone inhibition values need to be in the sensitive (S) range.
# [8] = test system: E. coli B-123; test: as above; design: key to Interpretation of zone as per CLSI recommendations: R: Resistant; I: Intermediate; S: Sensitive (Interpretation as per CLSI recommendations, 2010)
# Description: as §2, §3
# [9] = test system: E. coli B-89; test: as above; design: key to Interpretation of zone as per CLSI recommendations: R: Resistant; I: Intermediate; S: Sensitive (Interpretation as per CLSI recommendations, 2010)
# Description: as §2, §3
# [10] = test system: E. coli M-138; test: as above; design: key to Interpretation of zone as per CLSI recommendations: R: Resistant; I: Intermediate; S: Sensitive (Interpretation as per CLSI recommendations, 2010)
# Description: as §2, §3
# [11] = test system: E. coli M50; test: as above; design: key to Interpretation of zone as per CLSI recommendations: R: Resistant; I: Intermediate; S: Sensitive (Interpretation as per CLSI recommendations, 2010)
# Description: as §2, §3
# [12] = test system: E. coli S-112; test: as above; design: key to Interpretation of zone as per CLSI recommendations: R: Resistant; I: Intermediate; S: Sensitive (Interpretation as per CLSI recommendations, 2010)
# Description: as §2, §3
# [13] = Enterobacter cloacae, M20, 20 h, Tazobactam 0 mcg (antibiotic alone), read-out: MIC
# [14] = Escherichia coli, 7MP, 20 h, Tazobactam 0 mcg (antibiotic alone), read-out: MIC
# [15] = Escherichia coli, B89, 20 h, Tazobactam 0 mcg (antibiotic alone), read-out: MIC
# [16] = Escherichia coli, 20 h, Tazobactam 0 mcg (antibiotic alone), read-out: MIC
# [17] = Klebsiella pneumoniae, M150, K. pneumoniae M150, Tazobactam 0 mcg (antibiotic alone), read-out: MIC
# [18] = Klebsiella pneumoniae, M150, K. pneumoniae M150, with Tazobactam 4 mcg, read-out: MIC
# [19] = Klebsiella pneumoniae, M150, K. pneumoniae M150, with Tazobactam 8 mcg, read-out: MIC
# [20] = ESBL inhibitor 0 mcg (antibiotic alone)
# [21] = Table 5, with Tazobactam 10 mcg
# [22] = Table 5, with Clavulanic acid 10 mcg
# [23] = Table 6, with Clavulanic acid 10 mcg
smiles,measurement,setting,value
CO/N=C(\C(=O)N[C@@H]1C(=O)N2C(C(=O)[O-])=C(C[N+]3(C)CCCC3)CS[C@H]12)c1csc(N)n1 [Cefepime],"Activity (MIC, method of Example 1), Table 7",[1]; antibiotic alone,> 64 µg/mL
same,"Activity (MIC, method of Example 1), Table 7",[1]; with Clavulanic acid 4 mcg,16 µg/mL
same,"Activity (MIC, method of Example 1), Table 7",[1]; with Clavulanic acid 8 mcg,8 µg/mL
same,"Activity (MIC, method of Example 1), Table 7",[1]; with Sulbactam 4 mcg,32 µg/mL
same,"Activity (MIC, method of Example 1), Table 7",[1]; with Sulbactam 8 mcg,16 µg/mL
same,"Activity (MIC, method of Example 1), Table 7",[1]; with Tazobactam 4 mcg,4 µg/mL
same,MIC,[1]; with Tazobactam 8 mcg,4 µg/mL
same,"Activity (MIC, method of Example 1), Table 7","[1]; with Tazobactam, (4 mcg)",4 µg/mL
same,MIC,[1]; [13],> 64 µg/mL
same,"Activity (MIC, method of Example 1), Table 7",[2]; antibiotic alone,> 64 µg/mL
same,"Activity (MIC, method of Example 1), Table 7",[2]; with Clavulanic acid 4 mcg,16 µg/mL
same,"Activity (MIC, method of Example 1), Table 7",[2]; with Clavulanic acid 8 mcg,8 µg/mL
same,"Activity (MIC, method of Example 1), Table 7",[2]; with Sulbactam 4 mcg,16 µg/mL
same,"Activity (MIC, method of Example 1), Table 7",[2]; with Sulbactam 8 mcg,16 µg/mL
same,"Activity (MIC, method of Example 1), Table 7",[2]; with Tazobactam 4 mcg,8 µg/mL
same,MIC,[2]; with Tazobactam 4 mcg,8 µg/mL
same,MIC,[2]; with Tazobactam 8 mcg,4 µg/mL
same,"Activity (MIC, method of Example 1), Table 7","[2]; with Tazobactam, (4 mcg)",4 µg/mL
same,MIC,[2]; [14],> 64 µg/mL
same,MIC,[3]; with Tazobactam 8 mcg,2 µg/mL
same,MIC,[3]; [15],> 64 µg/mL
same,"Activity (MIC, method of Example 1), Table 7",[4]; antibiotic alone,> 64 µg/mL
same,"Activity (MIC, method of Example 1), Table 7",[4]; with Clavulanic acid 4 mcg,8 µg/mL
same,"Activity (MIC, method of Example 1), Table 7",[4]; with Clavulanic acid 8 mcg,8 µg/mL
same,"Activity (MIC, method of Example 1), Table 7",[4]; with Sulbactam 4 mcg,8 µg/mL
same,"Activity (MIC, method of Example 1), Table 7",[4]; with Sulbactam 8 mcg,16 µg/mL
same,"Activity (MIC, method of Example 1), Table 7",[4]; with Tazobactam 4 mcg,4 µg/mL
same,"Activity (MIC, method of Example 1), Table 7","[4]; with Tazobactam, (4 mcg)",2 µg/mL
same,MIC,[4]; Tazobactam 0 mcg (antibiotic alone),> 64 µg/mL
same,MIC,[4]; with Tazobactam 4 mcg,4 µg/mL
same,MIC,[4]; with Tazobactam 8 mcg,2 µg/mL
same,MIC,[5]; [16],> 64 µg/mL
same,MIC,[5]; with Tazobactam 4 mcg,2 µg/mL
same,MIC,[5]; with Tazobactam 8 mcg,2 µg/mL
same,MIC,"[6]; K. pneumoniae M150, with Tazobactam 4 mcg",4 µg/mL
same,MIC,"[6]; K. pneumoniae M150, with Tazobactam 8 mcg",4 µg/mL
same,MIC,[6]; [17],> 64 µg/mL
same,MIC,[6]; [18],4 µg/mL
same,MIC,[6]; [19],4 µg/mL
same,Zone of Inhibition,[7]; [20],16 mm
same,Interpretation of zone as per CLSI recommendations,"[7]; Table 5, ESBL inhibitor 0 mcg",(I)
same,Interpretation of zone as per CLSI recommendations,[7]; [21],(S)
same,Zone of Inhibition,[7]; with Tazobactam 10 mcg,20.5 mm
same,Zone of Inhibition,[8]; [20],8 mm
same,Interpretation of zone as per CLSI recommendations,"[8]; Table 5, ESBL inhibitor 0 mcg",(R)
same,Interpretation of zone as per CLSI recommendations,[8]; [21],(S)
same,Zone of Inhibition,[8]; with Tazobactam 10 mcg,20 mm
same,Zone of Inhibition,[9]; [20],8 mm
same,Interpretation of zone as per CLSI recommendations,"[9]; Table 5, ESBL inhibitor 0 mcg",(R)
same,Interpretation of zone as per CLSI recommendations,[9]; [21],(S)
same,Zone of Inhibition,[9]; with Tazobactam 10 mcg,20 mm
same,Zone of Inhibition,[10]; [20],Nil
same,Interpretation of zone as per CLSI recommendations,"[10]; Table 5, ESBL inhibitor 0 mcg",(R)
same,Interpretation of zone as per CLSI recommendations,[10]; [21],(S)
same,Zone of Inhibition,[10]; with Tazobactam 10 mcg,23 mm
same,Zone of Inhibition,[11]; [20],7.5 mm
same,Interpretation of zone as per CLSI recommendations,"[11]; Table 5, ESBL inhibitor 0 mcg",(R)
same,Interpretation of zone as per CLSI recommendations,[11]; [21],(S)
same,Zone of Inhibition,[11]; with Tazobactam 10 mcg,24 mm
same,Zone of Inhibition,[12]; [20],17 mm
same,Interpretation of zone as per CLSI recommendations,"[12]; Table 5, ESBL inhibitor 0 mcg",(I)
same,Interpretation of zone as per CLSI recommendations,[12]; [21],(S)
same,Zone of Inhibition,[12]; with Tazobactam 10 mcg,20.5 mm
CC1(C)S[C@@H]2[C@H](NC(=O)[C@H](C(=O)O)c3ccsc3)C(=O)N2[C@H]1C(=O)O [Ticarcillin],MIC,[1]; with Tazobactam 4 mcg,>64 µg/mL
same,MIC,[1]; with Tazobactam 8 mcg,>64 µg/mL
same,MIC,[1]; [13],> 128 µg/mL
same,MIC,[2]; with Tazobactam 4 mcg,>64 µg/mL
same,MIC,[2]; with Tazobactam 8 mcg,>64 µg/mL
same,MIC,[2]; [14],> 128 µg/mL
same,MIC,[3]; with Tazobactam 4 mcg,>64 µg/mL
same,MIC,[3]; with Tazobactam 8 mcg,>64 µg/mL
same,MIC,[3]; [15],> 128 µg/mL
same,MIC,[5]; [16],> 128 µg/mL
same,MIC,[5]; with Tazobactam 4 mcg,>64 µg/mL
same,MIC,[5]; with Tazobactam 8 mcg,>64 µg/mL
same,MIC,[6]; [17],> 128 µg/mL
same,MIC,[6]; [18],> 64 µg/mL
same,MIC,[6]; [19],> 64 µg/mL
same,Zone of Inhibition,[7]; [20],Nil
same,Interpretation of zone as per CLSI recommendations,"[7]; Table 5, ESBL inhibitor 0 mcg",(R)
same,Interpretation of zone as per CLSI recommendations,[7]; [22],(R)
same,Interpretation of zone as per CLSI recommendations,"[7]; Table 6, ESBL inhibitor 0 mcg",(R)
same,Interpretation of zone as per CLSI recommendations,[7]; [23],(R)
same,Zone of Inhibition,[7]; with Clavulanic acid 10 mcg,Nil
same,Zone of Inhibition,[8]; [20],Nil
same,Interpretation of zone as per CLSI recommendations,"[8]; Table 5, ESBL inhibitor 0 mcg",(R)
same,Interpretation of zone as per CLSI recommendations,[8]; [22],(R)
same,Interpretation of zone as per CLSI recommendations,"[8]; Table 6, ESBL inhibitor 0 mcg",(R)
same,Interpretation of zone as per CLSI recommendations,[8]; [23],(R)
same,Zone of Inhibition,[8]; with Clavulanic acid 10 mcg,13.5 mm
same,Zone of Inhibition,[9]; [20],Nil
same,Interpretation of zone as per CLSI recommendations,"[9]; Table 5, ESBL inhibitor 0 mcg",(R)
same,Interpretation of zone as per CLSI recommendations,[9]; [22],(R)
same,Interpretation of zone as per CLSI recommendations,"[9]; Table 6, ESBL inhibitor 0 mcg",(R)
same,Interpretation of zone as per CLSI recommendations,[9]; [23],(R)
same,Zone of Inhibition,[9]; with Clavulanic acid 10 mcg,10 mm
same,Zone of Inhibition,[10]; [20],Nil
same,Interpretation of zone as per CLSI recommendations,"[10]; Table 5, ESBL inhibitor 0 mcg",(R)
same,Interpretation of zone as per CLSI recommendations,[10]; [22],(R)
same,Interpretation of zone as per CLSI recommendations,"[10]; Table 6, ESBL inhibitor 0 mcg",(R)
same,Interpretation of zone as per CLSI recommendations,[10]; [23],(R)
same,Zone of Inhibition,[10]; with Clavulanic acid 10 mcg,10 mm
same,Zone of Inhibition,[11]; [20],9 mm
same,Interpretation of zone as per CLSI recommendations,"[11]; Table 5, ESBL inhibitor 0 mcg",(R)
same,Interpretation of zone as per CLSI recommendations,[11]; [22],(R)
same,Interpretation of zone as per CLSI recommendations,"[11]; Table 6, ESBL inhibitor 0 mcg",(R)
same,Interpretation of zone as per CLSI recommendations,[11]; [23],(R)
same,Zone of Inhibition,[11]; with Clavulanic acid 10 mcg,11.5 mm
same,Zone of Inhibition,[12]; [20],Nil
same,Interpretation of zone as per CLSI recommendations,"[12]; Table 5, ESBL inhibitor 0 mcg",(R)
same,Interpretation of zone as per CLSI recommendations,[12]; [22],(R)
same,Interpretation of zone as per CLSI recommendations,"[12]; Table 6, ESBL inhibitor 0 mcg",(R)
same,Interpretation of zone as per CLSI recommendations,[12]; [23],(R)
same,Zone of Inhibition,[12]; with Clavulanic acid 10 mcg,10 mm
